Read-outs that look alike come from different tables or passages of the source.
Tested on: mixture of Pseudomonas aeruginosa, Klebsiella pneumoniae, Staphylococcus aureus, and Bacillus subtilis
Assay: Growth inhibition assay (microtiter plate-based synergy assay)
Type: cell-based
Details: 24 h; for concentration needed to prevent at least 90% of the growth (I90) of the microbial consortium: active used alone
Source text: Details of each assay are provided below.
Growth Inhibition Assay. […] Regardless of the mechanism of action, the impact of a biocide (or combination of biocides) can be measured over time on the basis of an increase in the size of the community.
The assay measures the efficacy of one or more biocides at preventing growth of a consortium of bacteria in a dilute mineral salts medium. The medium contains (in mg/l) the following components: FeCl3.6H2O (1); CaCl2.2H2O (10); MgSO4.7H2O (22.5); (NH4)2SO4 (40); KH2PO4 (10); K2HPO4 (25.5); Yeast Extract (10); and glucose (100). After all components are added to deionized water, the pH of the medium is adjusted to 7.5. Following filter sterilization, aliquots are dispensed in 100 ul quantities to sterile microtiter plate wells. Dilutions of 2,2-dibromomalonamide (“DBMAL”) and/or “Biocide B” are then added to the microtiter plate. After preparing the combinations of actives as illustrated below, each well is inoculated with 100 μl of a cell suspension containing ca. 1×10^6 cells per milliliter of a mixture of Pseudomonas aeruginosa, Klebsiella pneumoniae, Staphylococcus aureus, and Bacillus subtilis. The final total volume of medium in each well is 300 μl. Once prepared as described herein, the concentration of each active ranges from 25 ppm to 0.195 ppm as illustrated in Table 1. The resulting matrix allows testing of eight concentrations of each active and 64 combinations of actives in the ratios (of actives).
Controls (not shown) contain the medium with no biocide added. After preparing the combinations of actives as illustrated above, each well is inoculated with 100 μl of a cell suspension containing ca. 1×10^6 cells per milliliter of a mixture of Pseudomonas aeruginosa, Klebsiella pneumoniae, Staphylococcus aureus, and Bacillus subtilis. The final total volume of medium in each well is 300 μl.
Immediately after the microtiter plates are prepared, the optical density (OD) readings for each well is measured at 580 nm and the plates are then incubated at 37° C. for 24 hr. After the incubation period, the plates are gently agitated before OD580 values are collected. The OD580 values at T0 are subtracted from T24 values to determine the total amount of growth (or lack thereof) that occurs. These values are used to calculate the percent inhibition of growth caused by the presence of each biocide and each of the 64 combinations.
where • CDBMAL: Concentration of DBMAL required to inhibit ˜90% of bacterial growth when used alone • CB: Concentration of biocide (B) required to inhibit ˜90% of bacterial growth when used alone.
MDBMAL: Concentration of DBMAL required to inhibit ˜90% of bacterial growth when used in combination with biocide (B).
MB: Concentration of biocide (B) required to inhibit ˜90% of bacterial growth when used in combination with DBMAL
The SI values are interpreted as follows:
• SI<1: Synergistic combination • SI=1: Additive combination • SI>1: Antagonistic combination
In the Examples below, the amounts of biocides in the solution are measured in mg per liter of solution (mg/l). Since solution densities are approximately 1.00, the mg/l measurement corresponds to weight ppm. Both units may therefore be used interchangeably in the Examples.

[1] = read-out: % Inhibition of growth by SOPP

Row | Structure (SMILES) | inhibition at 0.78 µg/mL [1] | inhibition at 1.56 µg/mL [1] | inhibition at 3.13 µg/mL [1] | inhibition at 6.25 µg/mL [1] | inhibition at 12.5 µg/mL [1] | inhibition at 25 µg/mL [1] | inhibition at 50 µg/mL [1] | concentration needed to prevent at least 90% of the growth (I90) of the microbial consortium | inhibition at […] (DBMAL alone 0.19 mg/l, OD580) | inhibition at 0.39 µg/mL (DBMAL alone 0.39 mg/l, OD580) | inhibition at 0.78 µg/mL (DBMAL alone 0.78 mg/l, OD580, read-out: % Inhibition of growth by DBMAL) | inhibition at 1.56 µg/mL (DBMAL alone 1.56 mg/l, OD580, read-out: % Inhibition of growth by DBMAL) | inhibition at 3.13 µg/mL (DBMAL alone 3.13 mg/l, OD580, read-out: % Inhibition of growth by DBMAL) | inhibition at 6.25 µg/mL (DBMAL alone 6.25 mg/l, OD580, read-out: % Inhibition of growth by DBMAL) | inhibition at 12.5 µg/mL (DBMAL alone 12.5 mg/l, OD580, read-out: % Inhibition of growth by DBMAL) | inhibition at 25 µg/mL (DBMAL alone 25.0 mg/l, OD580, read-out: % Inhibition of growth by DBMAL)
1 | Oc1ccccc1-c1ccccc1.[Na] [SOPP, sodium ortho-phenylphenol] | 0% | 17% | 0% | 37% | 68% | 98% | 98% | 500 mg/L | – | – | – | – | – | – | – | –
2 | NC(=O)C(Br)(Br)C(N)=O [DBMAL, 2,2-dibromomalonamide] | – | – | – | – | – | – | – | 12.5 mg/L | 0% | 4% | 7% | 0% | 0% | 49% | 100% | 100%
